# Key:
# [1] = system: MOLT-4; details: MOLT-4, 48 h
# [2] = system: RPMI-8226; details: RPMI-8226, 48 h
# [3] = system: SR; details: 48 h
# [4] = system: COLO 205; details: COLO 205, 48 h
# [5] = system: HCT-116; details: HCT-116, 48 h
# [6] = system: HT29; details: HT29, 48 h
# [7] = system: SF-268; details: SF-268, 48 h
# [8] = system: MDA-MB-435; details: MDA-MB-435, 48 h
# [9] = system: SK-OV-3; details: SK-OV-3, 48 h
# [10] = system: 786-0; details: 786-0, 48 h
# [11] = system: UO-31; details: UO-31, 48 h
# [12] = system: MDA-MB-231/ATCC; details: 48 h
# [13] = system: Non-small cell lung cancer; details: Non-small cell lung cancer subpanel
# [14] = system: Prostate Cancer; details: Prostate Cancer subpanel
# [15] = system: MOLT-4; test: cells; details: Homo sapiens, MOLT-4, 48 h; for CC50: read-out: LC50, MOLT-4, 48 h
# [16] = system: HCT-116; test: cells; details: Homo sapiens, HCT-116, 48 h
# [17] = system: LOX IMVI; test: cells; details: Homo sapiens, 48 h; for CC50: read-out: LC50, LOX IMVI, 48 h
# [18] = system: OVCAR-3; test: cells; details: Homo sapiens, OVCAR-3, 48 h
# [19] = system: OVCAR-4; test: cells; details: Homo sapiens, OVCAR-4, 48 h; for CC50: read-out: LC50, OVCAR-4, 48 h
# [20] = system: OVCAR-8; test: cells; details: Homo sapiens, OVCAR-8, 48 h; for CC50: read-out: LC50, OVCAR-8, 48 h
# [21] = system: NCI/ADR-RES; test: cells; details: Homo sapiens, 48 h; for CC50: read-out: LC50, NCI/ADR-RES, 48 h
# [22] = system: A498; test: cells; details: Homo sapiens, A498, 48 h
# [23] = system: CAKI-1; test: cells; details: Homo sapiens, CAKI-1, 48 h
# [24] = system: TK-10; test: cells; details: Homo sapiens, TK-10, 48 h; for CC50: read-out: LC50, TK-10, 48 h
# [25] = system: UO-31; test: cells; details: Homo sapiens, UO-31, 48 h; for CC50: read-out: LC50, UO-31, 48 h
# [26] = system: PC-3; test: cells; details: Homo sapiens, PC-3, 48 h
# [27] = system: DU-145; test: cells; details: Homo sapiens, DU-145, 48 h; for CC50: read-out: LC50, DU-145, 48 h
# [28] = system: Melanoma; test: cells; details: Homo sapiens; for GI50: read-out: MG_MID GI50; for CC50: read-out: MG_MID LC50
# [29] = system: Ovarian cancer; test: cells; details: Homo sapiens; for GI50: read-out: MG_MID GI50; for CC50: read-out: MG_MID LC50
# [30] = system: panel of 60 cancer cell lines; test: cells; details: Homo sapiens, read-out: MG_MID GI50
# [31] = system: HL-60(TB); test: NCI-60 SRB screen; details: for TGI / GI50: HL-60(TB), 48 h; for GI50 / CC50: Homo sapiens, HL-60, 48 h; for CC50: read-out: LC50, HL-60(TB), 48 h
# [32] = system: A549/ATCC; test: NCI-60 SRB screen; details: for TGI: 48 h; for GI50: Homo sapiens, A549, 48 h
# [33] = system: HOP-92; test: NCI-60 SRB screen; details: HOP-92, 48 h; for GI50 / CC50: Homo sapiens; for CC50: read-out: LC50, HOP-92, 48 h
# [34] = system: KM12; test: NCI-60 SRB screen; details: KM12, 48 h; for GI50: Homo sapiens
# [35] = system: SW-620; test: NCI-60 SRB screen; details: SW-620, 48 h; for GI50: Homo sapiens
# [36] = system: SF-295; test: NCI-60 SRB screen; details: SF-295, 48 h; for GI50 / CC50: Homo sapiens; for CC50: read-out: LC50, SF-295, 48 h
# [37] = system: M14; test: NCI-60 SRB screen; details: M14, 48 h; for GI50 / CC50: Homo sapiens; for CC50: read-out: LC50, M14, 48 h
# [38] = system: IGROV1; test: NCI-60 SRB screen; details: for GI50 / CC50: Homo sapiens, IGROV-1, 48 h; for GI50 / TGI: IGROV1, 48 h; for CC50: read-out: LC50, IGROV1, 48 h
# [39] = system: OVCAR-5; test: NCI-60 SRB screen; details: OVCAR-5, 48 h; for GI50: Homo sapiens
# [40] = system: MDA-MB-468; test: NCI-60 SRB screen; details: MDA-MB-468, 48 h; for GI50 / CC50: Homo sapiens; for CC50: read-out: LC50, MDA-MB-468, 48 h
smiles,measurement,setting,value
"CCCC(C(=O)O)N1C(=O)/C(=C/C=C/c2ccc([N+](=O)[O-])o2)SC1=S (centres unmarked) [4b, 2-((Z)-5-((E)-3-(5-Nitrofuran-2-yl)allylidene)-4-oxo-2-thioxothiazolidin-3-yl)pentanoic acid]",TGI,[1],14.4 µM
same,TGI,[2],5.11 µM
same,TGI,[3],8.87 µM
same,TGI,[4],3.60 µM
same,TGI,[5],3.90 µM
same,TGI,[6],3.81 µM
same,TGI,[7],4.45 µM
same,TGI,[8],3.31 µM
same,TGI,[9],18.7 µM
same,TGI,[10],12.6 µM
same,TGI,[11],3.33 µM
same,TGI,[12],4.29 µM
same,MG_MID TGI,[13],6.56 µM
same,MG_MID TGI,[14],8.56 µM
same,GI50,[15],3.3 µM
same,CC50,[15],> 100 µM
same,GI50,[16],1.82 µM
same,GI50,[17],1.59 µM
same,CC50,[17],6.11 µM
same,GI50,[18],2.18 µM
same,GI50,[19],6.03 µM
same,CC50,[19],44.3 µM
same,GI50,[20],1.98 µM
same,CC50,[20],13 µM
same,GI50,[21],2.03 µM
same,CC50,[21],21.4 µM
same,GI50,[22],2.24 µM
same,GI50,[23],1.75 µM
same,GI50,[24],3.27 µM
same,CC50,[24],27.6 µM
same,GI50,[25],1.63 µM
same,CC50,[25],6.78 µM
same,GI50,[26],2.87 µM
same,GI50,[27],2.42 µM
same,CC50,[27],22.8 µM
same,GI50,[28],1.67 µM
same,CC50,[28],7.32 µM
same,GI50,[29],3.12 µM
same,CC50,[29],23 µM
same,GI50,[30],2.17 µM
same,TGI,[31],6.43 µM
same,GI50,[31],2.17 µM
same,CC50,[31],> 100 µM
same,TGI,[32],5.40 µM
same,GI50,[32],2.22 µM
same,TGI,[33],7.69 µM
same,GI50,[33],2.63 µM
same,CC50,[33],31.9 µM
same,GI50,[34],1.38 µM
same,TGI,[34],2.78 µM
same,GI50,[35],1.55 µM
same,TGI,[35],3.08 µM
same,GI50,[36],2.2 µM
same,CC50,[36],25.7 µM
same,TGI,[36],6.76 µM
same,GI50,[37],1.83 µM
same,CC50,[37],7.74 µM
same,TGI,[37],3.77 µM
same,GI50,[38],1.94 µM
same,CC50,[38],7.75 µM
same,TGI,[38],3.87 µM
same,GI50,[39],1.89 µM
same,TGI,[39],4.32 µM
same,GI50,[40],1.57 µM
same,CC50,[40],5.92 µM
same,TGI,[40],3.05 µM
"CC(C)C(C(=O)O)N1C(=O)/C(=C/C=C/c2ccc([N+](=O)[O-])o2)SC1=S (centres unmarked) [5b, 3-Methyl-2-((Z)-5-((E)-3-(5-nitrofuran-2-yl)allylidene)-4-oxo-2-thioxothiazolidin-3-yl)butanoic acid]",TGI,[1],10.7 µM
same,TGI,[2],1.49 µM
same,TGI,[3],1.89 µM
same,TGI,[4],2.79 µM
same,TGI,[5],1.13 µM
same,TGI,[6],2.90 µM
same,TGI,[7],3.57 µM
same,TGI,[8],2.17 µM
same,TGI,[9],10.7 µM
same,TGI,[10],3.70 µM
same,TGI,[11],3.11 µM
same,TGI,[12],3.03 µM
same,MG_MID TGI,[13],4.25 µM
same,MG_MID TGI,[14],4.67 µM
same,GI50,[15],2.34 µM
same,CC50,[15],> 100 µM
same,GI50,[16],0.32 µM
same,GI50,[17],1.16 µM
same,CC50,[17],5.33 µM
same,GI50,[18],1.34 µM
same,GI50,[19],2.43 µM
same,CC50,[19],26.3 µM
same,GI50,[20],1.49 µM
same,CC50,[20],25.1 µM
same,GI50,[21],1.47 µM
same,CC50,[21],17.5 µM
same,GI50,[22],2.69 µM
same,GI50,[23],1.17 µM
same,GI50,[24],2.24 µM
same,CC50,[24],7.23 µM
same,GI50,[25],1.33 µM
same,CC50,[25],7.27 µM
same,GI50,[26],1.8 µM
same,GI50,[27],1.43 µM
same,CC50,[27],5.56 µM
same,GI50,[28],1.25 µM
same,CC50,[28],5.59 µM
same,GI50,[29],1.92 µM
same,CC50,[29],17.4 µM
same,GI50,[30],1.4 µM
same,TGI,[31],3.87 µM
same,GI50,[31],1.2 µM
same,CC50,[31],> 100 µM
same,TGI,[32],3.83 µM
same,GI50,[32],1.86 µM
same,TGI,[33],4.17 µM
same,GI50,[33],2.13 µM
same,CC50,[33],8.15 µM
same,GI50,[34],1.17 µM
same,TGI,[34],2.57 µM
same,GI50,[35],0.59 µM
same,TGI,[35],2.55 µM
same,GI50,[36],1.83 µM
same,CC50,[36],6.69 µM
same,TGI,[36],3.49 µM
same,GI50,[37],1.6 µM
same,CC50,[37],6.44 µM
same,TGI,[37],3.21 µM
same,GI50,[38],1.78 µM
same,CC50,[38],6.57 µM
same,TGI,[38],3.42 µM
same,GI50,[39],2.13 µM
same,TGI,[39],3.83 µM
same,GI50,[40],1.37 µM
same,CC50,[40],6.16 µM
same,TGI,[40],2.90 µM
"O=C(O)CCN1C(=O)/C(=C/C=C/c2ccc([N+](=O)[O-])o2)SC1=S [12b, 3-((Z)-5-((E)-3-(5-Nitrofuran-2-yl)allylidene)-4-oxo-2-thioxothiazolidin-3-yl)propanoic acid]",TGI,[1],2.56 µM
same,TGI,[2],4.48 µM
same,TGI,[3],1.15 µM
same,TGI,[4],12.4 µM
same,TGI,[5],3.57 µM
same,TGI,[6],12.5 µM
same,TGI,[7],3.18 µM
same,TGI,[8],2.48 µM
same,TGI,[9],16.1 µM
same,TGI,[10],3.54 µM
same,TGI,[11],2.25 µM
same,TGI,[12],3.24 µM
same,MG_MID TGI,[13],7.75 µM
same,MG_MID TGI,[14],10.6 µM
same,GI50,[15],0.58 µM
same,CC50,[15],> 100 µM
same,GI50,[17],0.58 µM
same,CC50,[17],4.34 µM
same,GI50,[18],1.36 µM
same,GI50,[19],1.79 µM
same,CC50,[19],8.07 µM
same,GI50,[20],1.84 µM
same,CC50,[20],28.2 µM
same,GI50,[21],1.21 µM
same,CC50,[21],24.8 µM
same,GI50,[22],14.3 µM
same,GI50,[23],1.42 µM
same,GI50,[24],2.02 µM
same,CC50,[24],7.19 µM
same,GI50,[25],1.05 µM
same,CC50,[25],4.84 µM
same,GI50,[26],2.48 µM
same,GI50,[27],2.61 µM
same,CC50,[27],33.3 µM
same,GI50,[28],1.14 µM
same,CC50,[28],5.56 µM
same,GI50,[29],2.05 µM
same,CC50,[29],17.7 µM
same,GI50,[30],1.68 µM
same,TGI,[31],3.30 µM
same,GI50,[31],1.28 µM
same,TGI,[32],12.4 µM
same,GI50,[32],3.21 µM
same,TGI,[33],3.50 µM
same,GI50,[33],1.83 µM
same,CC50,[33],6.72 µM
same,TGI,[34],3.37 µM
same,TGI,[35],19.8 µM
same,GI50,[36],2.17 µM
same,CC50,[36],16.3 µM
same,TGI,[36],5.21 µM
same,GI50,[37],1.48 µM
same,CC50,[37],6.31 µM
same,TGI,[37],3.05 µM
same,GI50,[38],1.43 µM
same,CC50,[38],5.7 µM
same,TGI,[38],2.86 µM
same,GI50,[39],1.99 µM
same,TGI,[39],3.70 µM
same,GI50,[40],0.66 µM
same,CC50,[40],5.71 µM
same,TGI,[40],2.14 µM

# Source: article PMC12655351, “Synthesis and Anticancer Activity Evaluation of New 5-((5-Nitrofuran-2-yl)allylidene)-2-thioxo-4-thiazolidinones” (Pharmaceuticals, 2025)
